The subject of data set [1] is zebrafish larvae. The experiment in a line: larval body length. The settings on record: for larval length: Example 2, 5 dpf; for larval length at 5 dpf: 0-5 dpf, 10 μM beclomethasone, 50 μM Rg1 or combination.
Procedure: (§1) In experiments in which the length of regenerated tail fin tissue after wounding, or the larval body length, was used as a readout, chemical treatments were started at 2 hours post-fertilization (hpf) and continued until 5 dpf, as indicated (15 larvae per treatment group). During this period, solutions were refreshed daily. For the regeneration experiments, tail fins were amputated at 2 dpf. At 5 dpf, larvae were fixed overnight in 4% PFA at 4° C. For determination of the larval length and the regeneration of the tail fins, larvae were imaged using a LeicaMZ16FA fluorescence stereomicroscope supported by LAS 3.7 software. The length of the entire larva or the newly grown tissue was measured using ImageJ software. The newly grown tissue can be visually distinguished from the old tissue, enabling precise measurement of its length.
Data set [2] deals with zebrafish larvae. The experiment in a line: whole-body cortisol measurement of zebrafish larvae (ELISA). The following applies: for whole-body cortisol level: Example 2, non-wounded; for whole-body cortisol level / whole-body cortisol level upon wounding: 5 dpf; for whole-body cortisol level upon wounding: Example 2, wounded at 2 dpf; for whole body cortisol level: 0-4 dpf, 10 μM beclomethasone, 50 μM Rg1 or combination.
Procedure: Ethyl acetate was added to the homogenate. The homogenates were then centrifuged at 4° C. for 8 min at 11,000 rpm and the supernatant was collected and vaporized. A volume of 150 μl of 0.2% Bovine serum albumin (Sigma-Aldrich) dissolved in PBS was added to the samples and frozen. Whole-body cortisol levels of the zebrafish larvae were determined by ELISA (Demeditec Diagnostics GmbH, Kiel-Wellsee, Germany), following the manufacturer's instructions. In each experiment, three biological replicates were used for each treatment group, and the ELISA was performed using technical duplicates.
Tail fin wounding were performed at 2 days post-fertilization (dpf). At 96hpf, the treatments were stopped, and larvae were incubated in egg water until 5 dpf to avoid cross-reactivity between the compounds and the cortisol antibody used in the ELISA. At dpf, the larvae were collected in an Eppendorf tube (30 larvae per sample), and 100 μl of ice-cold egg water was added. After the excess water had been taken out, the samples were glaciated in ethanol (EtOH)/dry-ice bath. Subsequently, the larvae were homogenized using a BulletBlender® for 3 min at 8,000 rpm. Ethyl acetate was added to the homogenate. The homogenates were then centrifuged at 4° C. for 8 min at 11,000 rpm, and the supernatant was collected and vaporized. A volume of 150 μl of 0.2% bovine serum albumin (Sigma-Aldrich) dissolved in PBS was added to the samples and frozen. Whole-body cortisol levels of the zebrafish larvae were determined using a Cortisol free in Saliva ELISA kit (Demeditec Diagnostics GmbH, Kiel-Wellsee, Germany), following the manufacturer's instructions. In each experiment, three biological replicates were used for each treatment group, and the ELISA was performed using technical duplicates.

Data set [3] concerns zebrafish larvae. Description: tail fin regeneration assay. The following applies: for tissue regeneration of tail fin: Example 2, amputation at 2 dpf, read at 5 dpf; for tissue regeneration upon wounding: Example 2, wounded at 2 dpf (second statement on FIG. 8F); for regeneration of amputated tail fin (length of regenerated tissue at 5 dpf): 0-5 dpf, 10 μM beclomethasone or dexamethasone, 50 μM Rg1 or combinations, amputation at 2 dpf.
Procedure: as §1

Data set [4] deals with zebrafish larvae. Description: whole-body glucose measurement of zebrafish larvae. The settings on record: for whole-body glucose level: Example 2, non-wounded; for whole-body glucose level / whole-body glucose level upon wounding: 5 dpf; for whole-body glucose level upon wounding: Example 2, wounded at 2 dpf; for whole body glucose level: 0-5 dpf, 10 μM beclomethasone, 50 μM Rg1 or combination.
Procedure: In each experiment, three biological replicates were used for each treatment group, and the colorimetric assay was performed using technical duplicates.
Tail fin wounding were performed at 2 days post-fertilization (dpf). At 5 dpf, the larvae (15 per sample) were placed in egg water for 1 h and collected in an Eppendorf tube, washed in egg water (3 times for 10 min). Subsequently, 100 μL of ice-cold glucose buffer was added to each sample, and the larvae were homogenized using a BulletBlender® for 3 min at 8,000 rpm. The homogenates were then centrifuged at 4° C. for 8 min at 11,000 rpm and the supernatant was stored at −20° C. Whole-body glucose concentrations were determined using a Glucose Colorimetric Assay kit (Cayman Chemical, Ann Arbor, MI, USA), according to the manufacturer's instructions. In each experiment, three biological replicates were used for each treatment group, and the colorimetric assay was performed using technical duplicates.

In a further data set the test system is macrophages. Description: zebrafish tail fin wounding assay, macrophage migration to wounded site. In kind it is in vivo, zebrafish (Danio rerio). The following applies: Example 2; PPT 50 μM; F1, Rh1, Rg1 100 μM; Bec positive control; 3 dpf. Here is the method: Zebrafish (Danio rerio) were maintained and handled according to the guidelines from the Zebrafish Model Organism Database (http://zfin.org) and in compliance with the directives of the local animal welfare committee of Leiden University. Zebrafish were exposed to a 14 h light and 10 h dark cycle to maintain circadian rhythmicity. Fertilization was performed by natural spawning at the beginning of the light period. […] The following zebrafish lines were used in this study: the double transgenic line Tg(mpx:GFP^i114/mpeg1:mCherry^umsF001), in which neutrophils and macrophages are fluorescently labeled (green and red, respectively), and the Tg(9xGCRE-HSV.UI23:EGFP)^ia20 reporter line, in which the gene encoding enhanced green fluorescent protein (EGFP) is driven by a GRE-containing promoter.
For the tail fin wounding experiments, 20 larvae at 2 or 3 days post-fertilization (dpf) were utilized for each experimental group. For wounding, larvae were anesthetized in egg water containing 0.02% buffered aminobenzoic acid ethyl ester (tricaine; Sigma-Aldrich). Larvae were placed on Petri dishes coated with 2% agarose under a Leica M165C stereomicroscope (Leica Microsystems, Wetzlar, Germany), and the tails were partly amputated using a 1-mm sapphire blade (World Precision Instruments, Sarasota, FL, USA). For quantification of leukocyte migration, larvae were fixed overnight in 4% paraformaldehyde (PFA) at 4° C. The next day, fixed larvae were washed with Phosphate Buffered Saline (PBS) containing 0.1% Tween 20, and stored at 4° C. until imaging.
The macrophages were detected based on their red (mCherry) fluorescence, and neutrophils based on their green (EGFP) fluorescence. To quantify the number of macrophages and neutrophils recruited to the wounded area, the cells in a defined area of the tail were determined by blinded manual counting.
Zebrafish (Danio rerio) were maintained and handled according to the guidelines from the Zebrafish Model Organism Database (http://zfin.org) and in compliance with the directives of the local animal welfare committee of Leiden University. Zebrafish were exposed to a 14 h light and 10 h dark cycle to maintain circadian rhythmicity. Fertilization was performed by natural spawning at the beginning of the light period. […] The following zebrafish lines were used in this study: AB/TL wild type, the transgenic lines Tg(mpx:GFP^i114/mpeg1:mCherry^umsF001)[14, 15], and Tg(9xGCRE-HSV.UI23:EGFPia^20)[16], and the mutant lines grs357[20].
For the tail fin wounding experiments, 2- or 3-days post-fertilization (dpf) larvae were anesthetized in egg water containing 0.02% buffered aminobenzoic acid ethyl ester (tricaine; Sigma-Aldrich). Larvae were placed in Petri dishes coated with 2% agarose under a Leica M165C stereomicroscope (Leica Microsystems, Wetzlar, Germany), and the tails were partly amputated using a 1-mm sapphire blade (World Precision Instruments, Sarasota, FL, USA).
In experiments in which the leukocyte migration was used as a readout, larvae were subjected to treatment with chemicals as indicated, starting at 2 h before the amputation (pretreatment), and treatment was continued for 4 h after the tail fin amputation (20 larvae per group, unless indicated otherwise). In some experiments, a 24 h treatment with MZ31 (10 μM) was started at 2 dpf, and these treatments were continued during the pretreatment and treatment with the other chemicals. At 4 h after amputation, the larvae were fixed in 4% paraformaldehyde (PFA) overnight at 4° C. The next day, fixed larvae were washed with Phosphate Buffered Saline (PBS) containing 0.1% Tween 20 and stored at 4° C. until imaging. […] The macrophages were detected based on red (mCherry) fluorescence and neutrophils on their green (EGFP) fluorescence. To quantify the number of macrophages and neutrophils recruited to the wounded area, the cells in a defined area of the tail were determined by blinded manual counting. […]

Where [5] appears, read: beclomethasone 0.1, 1, 5, 10, 15 μM without or with 50 μM Rg1.

These results are taken from US20260306525A1, “COMBINATION THERAPY GLUCOCORTICOIDS AND GINSENOSIDE” (FYTAGORAS B.V., priority 2023, published 2026).

Turning to `CC(C)=CCC[C@](C)(O)[C@H]1CC[C@]2(C)[C@@H]1[C@H](O)C[C@@H]1[C@@]3(C)CC[C@H](O)C(C)(C)[C@@H]3[C@@H](O[C@@H]3O[C@H](CO)[C@@H](O)[C@H](O)[C@H]3O)C[C@]12C` [Rh1], the larval length entry with zebrafish larvae [1] is listed as “did not show any side effects”. Also, in the data set on zebrafish larvae [2], the whole-body cortisol level result is listed as “did not show any side effects” and the “whole-body cortisol level upon wounding” value is reported as “still not show any effect on the glucose or cortisol level or on tissue regeneration”. Besides, in the data set with zebrafish larvae [3], the “tissue regeneration of tail fin” value is “did not show any side effects” and the “tissue regeneration upon wounding” value was “still not show any effect on the glucose or cortisol level or on tissue regeneration”. In the data set with zebrafish larvae [4], the whole-body glucose level result is given as “did not show any side effects” and the “whole-body glucose level upon wounding” value is recorded as “still not show any effect on the glucose or cortisol level or on tissue regeneration”. In addition, the “macrophage migration upon tail fin wounding” value in the data set on macrophages is recorded as “without affecting the macrophage migration”.

For `CC(C)=CCC[C@](C)(O)[C@H]1CC[C@]2(C)[C@@H]1[C@H](O)C[C@@H]1[C@@]3(C)CC[C@H](O)C(C)(C)[C@@H]3[C@@H](O)C[C@]12C` [PPT, Protopanaxatriol], the larval length result in the data set on zebrafish larvae [1] was “minor effect on larval length”. Moreover, the whole-body cortisol level result with zebrafish larvae [2] is reported as “did decrease the cortisol concentration”. For the same molecule, the “tissue regeneration of tail fin” value in the data set with zebrafish larvae [3] is given as “considerably inhibited the regeneration of the tail fin after wounding”. Further, the whole-body glucose level entry with zebrafish larvae [4] is reported as “did not affect the glucose level”. Besides, the “macrophage migration upon tail fin wounding” value with macrophages is “without affecting the macrophage migration”.

Consider `CC(C)=CCC[C@](C)(O[C@@H]1O[C@H](CO)[C@@H](O)[C@H](O)[C@H]1O)[C@H]1CC[C@]2(C)[C@@H]1[C@H](O)C[C@@H]1[C@@]3(C)CC[C@H](O)C(C)(C)[C@@H]3[C@@H](O)C[C@]12C` [F1], for which, in the data set with zebrafish larvae [1], the larval length result is reported as “did not show any side effects”. Further, in the data set on zebrafish larvae [2], the whole-body cortisol level entry is “did not show any side effects”; the “whole-body cortisol level upon wounding” value is “minor effect on the cortisol level and on tissue regeneration”. Moreover, the “cortisol effect upon wounding in presence of Gba2 inhibitor MZ31” value in the data set with zebrafish larvae [2] (Example 2, wounded, with MZ31) is listed as “These latter effects were Gba2-dependent”. Besides, in the data set with zebrafish larvae [3], the “tissue regeneration of tail fin” value was “did not show any side effects”; the “tissue regeneration upon wounding” value is “minor effect on the cortisol level and on tissue regeneration”. The “tissue regeneration effect in presence of Gba2 inhibitor MZ31” value in the data set with zebrafish larvae [3] (Example 2, wounded, with MZ31) is recorded as “These latter effects were Gba2-dependent”. In the data set on zebrafish larvae [4], the whole-body glucose level result is given as “did not show any side effects” and the “whole-body glucose level upon wounding” value was “did not affect the glucose level”. For the same molecule, the “macrophage migration upon tail fin wounding” value in the data set on macrophages is “without affecting the macrophage migration”.

Regarding `CC(C)=CCC[C@](C)(O[C@@H]1O[C@H](CO)[C@@H](O)[C@H](O)[C@H]1O)[C@H]1CC[C@]2(C)[C@@H]1[C@H](O)C[C@@H]1[C@@]3(C)CC[C@H](O)C(C)(C)[C@@H]3[C@@H](O[C@@H]3O[C@H](CO)[C@@H](O)[C@H](O)[C@H]3O)C[C@]12C` [Rg1, (3β,6α, 12β)-3,12-Dihydroxydammar-24-ene-6,20-diyl bis-β-D-glucopyranoside], in the data set on zebrafish larvae [1], the “larval length at 5 dpf” value is “did not affect the larval length” and the larval length entry is reported as “did not show any side effects”. In addition, in the data set on zebrafish larvae [2], the “whole body cortisol level” value was “did not affect the whole-body glucose and cortisol concentrations”; the whole-body cortisol level entry is “did not show any side effects”; the “whole-body cortisol level upon wounding” value is listed as “still not show any effect on the glucose or cortisol level or on tissue regeneration”. In the data set on zebrafish larvae [3], the “regeneration of amputated tail fin (length of regenerated tissue at 5 dpf)” value is “did not affect the regenerative process”, the “tissue regeneration of tail fin” value is on record as “did not show any side effects” and the “tissue regeneration upon wounding” value was “still not show any effect on the glucose or cortisol level or on tissue regeneration”. In the data set with zebrafish larvae [4], the “whole body glucose level” value is “did not affect the whole-body glucose and cortisol concentrations”; the whole-body glucose level entry was “did not show any side effects”; the “whole-body glucose level upon wounding” value was “still not show any effect on the glucose or cortisol level or on tissue regeneration”. In addition, the “macrophage migration upon tail fin wounding” value with macrophages is “without affecting the macrophage migration”.

For `C[C@H]1C[C@H]2[C@@H]3CCC4=CC(=O)C=C[C@]4(C)[C@@]3(Cl)[C@@H](O)C[C@]2(C)[C@@]1(O)C(=O)CO` [beclomethasone, reference compound], in the data set on zebrafish larvae [1], the “larval length at 5 dpf” value was “significantly decreased” and the larval length result is given as “decrease in larval length”. Moreover, in the data set on zebrafish larvae [2], the “whole body cortisol level” value is “reduced whole body cortisol levels” and the whole-body cortisol level result is given as “decrease in cortisol level”. In the data set with zebrafish larvae [2] (setting [5]), the “dose-response of whole-body cortisol level” value was “dose-dependent effect”. Also, in the data set on zebrafish larvae [3], the “regeneration of amputated tail fin (length of regenerated tissue at 5 dpf)” value was “inhibited the regeneration” and the “tissue regeneration of tail fin” value is given as “inhibited the tissue regeneration”. Further, in the data set on zebrafish larvae [4], the “whole body glucose level” value is “elevated whole body glucose” and the whole-body glucose level result is given as “increase in the glucose level”. Also, the “dose-response of whole-body glucose level” value in the data set on zebrafish larvae [4] (setting [5]) was “dose-dependent effect”. Moreover, the “macrophage migration upon tail fin wounding” value in the data set on macrophages is “without affecting the macrophage migration”.
